# From US6613317B1, “Volatile attractants for diabrotica species” (priority 1988, dated 2003)
# Marks after values point to notes of the source that are not given here.
# What was measured:
# D. u. howardi = test: Sticky trap attraction along hybrid corn, Pomology South Farms (Example 2); format: in vivo, Diabrotica undecimpunctata howardi; conditions: 100 mg per trap, n = 4
# Method: The candidate lures in all experiments were purchased commercially and exceeded 98% purity. The test chemicals were applied by capillary micropipettes to cotton dental wicks which were attached to the tops of 1.0 liter cylindrical paper cartons covered with TangleTrap™ (Tanglefoot Co., Grand Rapids, Mich.). The sticky trap techniques used were as described in Example 1. Cinnamyl alcohol and para-methoxycinnamaldehyde, which are solids, were dissolved in glass-distilled acetone prior to dosing the cotton wicks. All treatments were applied at a dosage of 100 mg per trap. 1,2,4-trimethoxybenzene, indole, and trans-cinnamaldehyde were mixed in a ratio of 1:1:1, by weight, immediately prior to dosing the cotton wicks. Control traps had untreated cotton wicks. Four replicates of treated and untreated traps were randomly positioned 10 meters apart on top of 1 m high posts along the border of a eight foot wide strip cut through the middle of a 4.05 ha relict prairie at Trelease Woods (ca. two miles northeast of Urbana, Ill.). The field consisted primarily of Andropogon gerardii Vitman (big bluestem) and a variety of composites. The tests were conducted in mid-August of two years and were timed to coincide with the presence of D. cristata and D. barberi adults in the flower heads of Canada thistle (Carduus arvensis Robson). In the second year, several new attractants of D. v. virgifera and D. barberi were tested in Trelease Woods and along the edge of a 0.8 ha field of hybrid corn located at the Pomology South Farms, Urbana, Ill. Attraction of Diabrotica species to the various lures was measured by the mean number of beetles caught after 24-h. On one date in late August of the first year, D. cristata and D. barberi were removed from the traps and sexed in the laboratory. The significance of treatments in all tests was determined by an analysis of variance and the individual means were separated by Duncan's multiple range test (Statistical Package for Social Science, Nie, et al., SPSS: statistical package for the social sciences, 2nd ed. McGraw-Hill, New York (1975). Data were logarithmically transformed for statistical analysis and the means and standard deviations are presented for the untransformed data.
# D. v. virgifera = test: Sticky trap attraction in prairie habitat, Trelease Woods (Example 2); format: in vivo, Diabrotica virgifera virgifera; conditions: 100 mg per trap, n = 4
# How it was run: (§1)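 Lure-dosed cotton wicks (solids in acetone; untreated controls) on TangleTrap-coated cartons atop 1 m posts, four replicates 10 m apart in relict prairie, mid-August over two years. Read-out: mean beetles caught after 24-h; log-transformed ANOVA with Duncan's multiple range test.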
# [1] = system: western corn rootworm (WCR) adults; test: Sticky trap attraction in corn, estragole analogues (Example 3); format: in vivo, Diabrotica virgifera virgifera; conditions: 100 mg per trap, n = 4
# How it was run: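 Cotton wicks dosed with 100 mg or 100 μL attractant per trap on TangleTrap-coated cartons, four replicates 10 m apart on 1 m posts at field edges of hybrid or sweet corn. Mean beetles caught after ~24 h; log-transformed ANOVA with Duncan's test, P=0.05.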
# [2] = system: northern corn rootworm (NCR); test: Sticky trap attraction in corn, phenylethanol analogues (Example 6); format: in vivo, Diabrotica barberi; conditions: four replicates; for Mean number of NCR per trap (± standard deviation): 24 hour
# How it was run: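 Field sticky traps (TangleTrap-coated cartons) baited with 100 mg or 100 μL test chemical on cotton wicks unless otherwise indicated; untreated wicks as controls. Four replicates per treatment, spaced 10 m apart on 1 m posts at corn field edges. Readout: mean beetles caught per trap after ~24 h; log-transformed ANOVA with Duncan's test, P=0.05.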
# D. barberi = test: Sticky trap attraction in prairie habitat, Trelease Woods (Example 2); format: in vivo, Diabrotica barberi; conditions: for Mean number of D. barberi per day (±standard deviation) / Mean number of D. barberi per sticky trap per day (±standard deviation): 100 mg per trap, n = 4
# How it was run: as §1
# [3] = day 1 after single 100 mg dosage on cotton wick
# [4] = day 2 after single 100 mg dosage on cotton wick
# [5] = day 3 after single 100 mg dosage on cotton wick
# [6] = day 4 after single 100 mg dosage on cotton wick
# [7] = day 5 after single 100 mg dosage on cotton wick
# [8] = day 6 after single 100 mg dosage on cotton wick
# [9] = day 7 after single 100 mg dosage on cotton wick
# [10] = day 8 after single 100 mg dosage on cotton wick
# [11] = day 11 after single 100 mg dosage on cotton wick
SMILES,Mean number of D. u. howardi per stick trap per day (±standard deviation) in corn (D. u. howardi; August 7),Mean number of D. u. howardi per stick trap per day (±standard deviation) in corn (D. u. howardi; August 18),"Mean number of D. v. virgifera per day (±standard deviation) (D. v. virgifera; August 11, 1987)","Mean number of D. v. virgifera per day (±standard deviation) (D. v. virgifera; August 14, 1987)",Mean number of WCR (±standard deviation) per sticky trap after 24 hours ([1]; August 7 (Table 11)),Mean number of WCR (±standard deviation) per sticky trap after 24 hours ([1]; August 18 (Table 11)),"Mean number (control subtracted) of NCR per trap [2, 3] [per trap]","Mean number (control subtracted) of NCR per trap [2, 4] [per trap]","Mean number (control subtracted) of NCR per trap [2, 5] [per trap]","Mean number (control subtracted) of NCR per trap [2, 6] [per trap]","Mean number (control subtracted) of NCR per trap [2, 7] [per trap]","Mean number (control subtracted) of NCR per trap [2, 8] [per trap]","Mean number (control subtracted) of NCR per trap [2, 9] [per trap]","Mean number (control subtracted) of NCR per trap [2, 10] [per trap]","Mean number (control subtracted) of NCR per trap [2, 11] [per trap]","Mean number of D. barberi per day (±standard deviation) (D. barberi; August 11, 1987)","Mean number of D. barberi per day (±standard deviation) (D. barberi; August 14, 1987)","activity for D. barberi relative to estragole (D. barberi; prairie, Table 5) [times]",other results
"C=CCc1ccc(O)c(OC)c1 [XXIV, eugenol]",6.3 ± 1.0^a per stick trap per day,0.0^a per stick trap per day,0.3 ± 0.5^a per day,0.0^a per day,10.0 ± 2.9^a per sticky trap,2.7 ± 2.9^a per sticky trap,88.2,67.3,14.3,18.0,20.7,29.9,30.2,35.5,10.0,9.5 ± 8.3^bc per day,8.3 ± 3.3^c per day,2,"Mean number of D. v. virgifera per sticky trap per day (±standard deviation) (D. v. virgifera; August 18, first year): 0.3 ± 0.5^a per sticky trap per day; Mean number of D. v. virgifera per sticky trap per day (±standard deviation) (D. v. virgifera; August 20, first year): 0 per sticky trap per day; Mean number of D. v. virgifera per sticky trap per day (±standard deviation) (D. v. virgifera; August 27, first year): 0 per sticky trap per day; Mean number of D. barberi per sticky trap per day (±standard deviation) (D. barberi; August 18, first year): 21.8 ± 7.3^b per sticky trap per day; Mean number of D. barberi per sticky trap per day (±standard deviation) (D. barberi; August 20, first year): 22.5 ± 13.2^c per sticky trap per day; Mean number of D. barberi per sticky trap per day (±standard deviation) (D. barberi; August 27, first year): 10.5 ± 4.8^b per sticky trap per day"
"OCC=Cc1ccccc1 [XVIII, cinnamyl alcohol]",24.5 ± 13.6^b per stick trap per day,1.8 ± 1.3^b per stick trap per day,0.0 per day,0.0^a per day,13.8 ± 10.2^a per sticky trap,3.3 ± 1.7^a per sticky trap,52.0,65.3,17.3,19.5,17.7,7.7,10.4,11.0,9.8,16.5 ± 5.1^c per day,13.0 ± 12.8^bc per day,5,"Mean number of WCR per sticky trap after 24 hours ([1]; August 5 (Table 10)): 16.5 ± 1.9^ab per sticky trap; Mean number of NCR per trap (± standard deviation) ([2]; Table 16, 100 mg per trap): 50.7 ± 50.9b per trap; Mean number of NCR per trap (± standard deviation) ([2]; Table 18, 1 mg): 3.5 ± 2.4a per trap; Mean number of NCR per trap (± standard deviation) ([2]; Table 18, 3 mg): 4.0 ± 0.8ab per trap; Mean number of NCR per trap (± standard deviation) ([2]; Table 18, 10 mg): 8.5 ± 2.1bc per trap; Mean number of NCR per trap (± standard deviation) ([2]; Table 18, 30 mg): 15.2 ± 4.2c* per trap; Mean number of NCR per trap (± standard deviation) ([2]; Table 20, 100 mg per trap): 127.0 ± 24.2b per trap; activity for D. barberi relative to the TIC mixture (D. barberi; prairie, Table 5): ca. 3.5 times"
